Patent US7345035B2, “Treatment of osteoporosis and autoimmune disease with astrogorgiadiol” (University of Delaware, priority 2003, dated 2008)

Experiments:
[1] = tested on: osteopontin mRNA; assay: Northern blot of osteopontin mRNA in ROS 17/2.8 cells; type: cell-based
Procedure: Changes in levels of mRNA encoding osteopontin induced by astrogorgiadiol were studied by Northern blot. Northern blot analysis was performed as described in Farach-Carson American Journal of Physiology 265: F705-F711 (1993), modified to include varying concentrations of astrogorgiadiol.
Briefly, […] cells were treated with 1 nM 1, 25 (OH)2vitD3 (BIOMOL Research Laboratories Inc., Plymouth Meeting, Pa.) or 1 nM 1, 25 (OH)2 vitD3 and 3 nM, 30 nM or 300 nM astrogorgiadiol for 0, 3 or 24 hours prior to harvest or with 3 nM, 30 nM or 300 nM astrogorgiadiol. mRNA was extracted using standard techniques. Osteopontin mRNA was detected using a ^32P-labeled osteopontin cDNA probe.

[2] = tested on: starfish eggs; conditions: cited from earlier work

| SMILES | osteopontin mRNA level (Northern blot) ([1]; ROS 17/2.8 cells, 1 nM 1,25 (OH)2 vitD3, 0, 3 or 24 hours prior to harvest) | cell division of starfish eggs [2] | 1,25 (OH)2 vitD3-induced osteopontin mRNA level (Northern blot) ([1]; 3 nM astrogorgiadiol with 1 nM 1,25 (OH)2 vitD3, ROS 17/2.8 cells) | osteopontin mRNA level (Northern blot) ([1]; 30 nM astrogorgiadiol with 1 nM 1,25 (OH)2 vitD3, ROS 17/2.8 cells) | osteopontin mRNA level (Northern blot) ([1]; 300 nM astrogorgiadiol with 1 nM 1,25 (OH)2 vitD3, ROS 17/2.8 cells) | osteopontin mRNA level (Northern blot), dose dependence ([1]; ROS 17/2.8 cells, 3 nM, 30 nM or 300 nM astrogorgiadiol, with 1 nM 1,25 (OH)2 vitD3) | concentration effective to downregulate osteopontin RNA production ([1]; in cells in vitro) |
| --- | --- | --- | --- | --- | --- | --- | --- |
| C=C1/C(=C\C=C2/CCC[C@]3(C)[C@@H]([C@H](C)CCCC(C)(C)O)CC[C@@H]23)C[C@@H](O)C[C@@H]1O [1,25 (OH)2 vitD3, reference compound] | increased osteopontin mRNA | – | – | – | – | – | – |
| Cc1ccc(O)cc1CC[C@@H]1[C@H](O)CC[C@]2(C)[C@@H]([C@H](C)CCCC(C)C)CC[C@@H]12 [astrogorgiadiol, Astrogorgiadiol] | – | inhibit cell division of starfish eggs | decreased 1,25 (OH)2 vitD3-induced osteopontin mRNA to levels approaching control levels | decreased the level of osteopontin mRNA below control levels | decreased the level of osteopontin mRNA below control levels | downregulated osteopontin mRNA in a dose-dependent manner | 3 to 300 nM |
